From article PMC5458179, “Oxidative DNA double strand breaks and autophagy in the antitumor effect of sterically hindered platinum(II) complexes in NSCLCs” (Oncotarget, 2017)

Legend:
γ-H2AX = assay: Nuclear γH2AX foci analysis; format: cell-based, human; settings: A549, 8 h and 12 h
Source text: (§1) The serine 139-phosphorylated form of chromatin-associated histone H2AX, namely γ-H2AX, is a key marker of cellular response to DDR, particularly DSBs. […] Obviously, pre-treatment of NAC could considerably alleviate the DDR triggered by complex 3 (Figure 5B). Therefore, we came to a conclusion that complex 3 caused DDR especially DSBs in A549 cells, which might happen after the increased level of intracellular ROS. In order to reveal the mechanisms underlying the enhanced DNA damage, complex 3 was studied to learn whether it could reduce the activation of DNA repair response including the co-localization of DSB repair protein MDC1/Aprataxin within nucleus. […] In order to reveal the mechanisms underlying DNA damage, complex 3 was studied to detect whether it could suppress the activation of DNA single strand break repair via the phosphorylation of SSB repair mediator/adaptor proteins XRCC1 within nucleus.
(§2) For assessment of DSBs repair kinetics we detected the total nuclear volume for an average of 50–60 nuclei per time points and cell type. Briefly, A549 cells were grown to confluence in 35 mm petri-dishes with 0.17 mm glass bottom. […] Non-specific binding was blocked by incubation with 5% FCS/PBS/0.1% Triton X-100 for 1 h at RT. […] Numbers of γH2AX foci were counted in 50–60 nuclei and plotted over time as previously described.

caspase-3 = assay: Caspase-3 activation analysis; format: cell-based, human; settings: A549 and NCI-H1299, 10 μM, 24 h
Experimental: For the quantification of activation of caspase-3 in cancer cells, 5 × 10^5 cancer cells were seeded in a 60 mm dish and allowed to adhere for 1 day. […] As a reference control, the cells were only incubated with fresh media at 37°C. Then, the cells were washed with PBS to eliminate the remaining drugs and harvested using trypsin-EDTA. All the groups of cells were collected into microtubes following incubation with […] media containing […] of FITC-DEVD-FMK (Caspase 3(active) FITC Staining Kit (ab65613)) for 1 h at 37°C under 5% CO2. Subsequently, centrifugation of the cells was performed to collect cell pellets and washed 2 times with washing buffer. Each group of cells was resuspended with […] of the washing buffer and transferred […] per well in a microtiter plate reader. The quantification of caspase-3 was evaluated as Relative Fluorescence Unit(RFU) using Fluorophotometer (Max Gemini EM, SoftMax® Pro 5, Molecular Devices Corp., Sunnyvale, CA) at an emission wavelength of 535 nm after excitation at 485 nm. The statistical significance was evaluated with one-way ANOVA test using Graph Pad Prism 4 software.

A549 cells = assay: Autophagy by acridine orange flow cytometry (AVOs); format: cell-based, human
Experimental: The role of complex 3-induced autophagy in cell death was further analyzed (Figure 6). When A549 cancer cells were treated with complex 3 of 10 μM, the protein expression of LC3-II was increased (Figure 6A). […] Treatment with complex 3 for 24 h caused a 4.5-folds increase in cells undergoing autophagy (Figure 6C). […] Moreover, Bax and Bcl-2 expressions were measured by western blot analysis of whole cell lysates.
To investigate the role of ROS in complex 3-induced cell death, the level of intracellular H2O2 was measured. […] Exposure of A549 cells to NAC reduced levels of LC3-II from 2.3- to 1.5-folds (Figure 8B). […] In parallel, the complex 3-induced increase ratio of Bax/Bcl-2 was suppressed by NAC (Figure 8E).
Flow cytometry with acridine orange staining as described in a previous study was used to detect and quantify the AVOs, one of the characteristicsof autophagy. At the end of individual experiments, A549 cells were collected in phenol red-free RPMI 1640 medium. Green (FL-1) and red (FL-3) fluorescences of acridine orange were measured using a flow cytometer and CellQuest software (Becton Dickinson, San Jose, CA). The sum of the upper-left and upper-right quadrants of the cytogram was used to estimate the percentage of cells undergoing autophagy.

cancer cells = assay: Analysis of SSB (alkaline elution assay); format: cell-based; settings: 10 μM, 15, 30 and 60 min
Experimental: Thus, we further identified whether the increased ROS level serves as a cause of DDR. […] To investigate the extent of DNA damage induced by complex 3, we detected the numbers of normal SSB using an alkaline elution assay.
Then the cells were washed three times with PBSCMF (140 mM NaCl, 3 mM KCl, 8 mM Na2HPO4 and 1 mM KH2PO4). The numbers of SSBs were determined by an alkaline elution assay as previously described. The numbers of SSB in untreated cancer cells were subtracted in all cases.

MCF-7 = assay: MTT cytotoxicity assay; format: cell-based, human; settings: exposed for 48 h
Experimental: Human cancer cell lines HepG2, SGC-7901, HCT-116, A549, NCI-H1299 and MCF-7 as well as normal liver cell line L02 were purchased from the Cell Bank of Shanghai Institute of Cell Biology. Among them, MCF-7, HepG2 cells were cultured at 37 °C in 5% CO2 with DMEM supplemented with 10% fetal bovine serum (FBS) (Hyclone, Lifescience, USA) and 1% penicillin/streptomycin (Beyotime, Nantong, China), while HCT-116, SGC-7901, A549, NCI-H1299 and L02 cells were cultured at 37 °C in 5% CO2 with RPMI-1640 supplemented with 10% FBS and 1% penicillin/streptomycin. Cells were passed every 2 days and restarted from frozen stocks upon reaching pass number 20.
In vitro cytotoxicity of the platinum compounds against human hepatocellular carcinoma (HepG-2), gastric carcinoma (SGC-7901), non-small-cell lung cancer (A549), and colorectal cancer (HCT-116) cell lines were measured by the MTT assays. Briefly, the cells were seeded in 96-well cultured plates at a density of 5000 cells/well. After overnight incubation (16 h), the cells were treated with the platinum complexes. […] The cell viability was evaluated by measurement of the absorbance at 490 nm, using an Absorbance Reader (BioRad). […] The reading values were converted to the percentage of control (% cell survival). Cytotoxic effects were expressed as IC50 values.

p-XRCC1 = assay: Immunostaining of SSB repair protein; format: cell-based, human; settings: A549, 10 μM, 24 h
Source text: as §1, §2

For `CC(C)C[NH+]1[C@@H]2CCCC[C@H]2[NH+](CC(C)C)[Pt-2]12[O]C(=O)CC(=O)[O]2` (some centres unmarked) [Complex 3], the γ-H2AX (γ-H2AX) was “obvious increases in γ-H2AX”, the caspase-3 activity (caspase-3) was “high degree of caspase-3 activity compared to oxaliplatin” and the percentage of autophagy (A549 cells; A549, 10 μM complex 18 h, without NAC) was 42.5%. The “increase in cells undergoing autophagy” value (A549 cells; A549, 10 μM, 24 h) was 4.5 folds, the percentage of autophagy (A549 cells; A549, 5 mM NAC 2 h pretreatment then 10 μM complex 18 h) was 11.8% and the “numbers of SSBs” value (cancer cells) was “could effectively increase the numbers of SSBs”. For the same compound, the IC50 (MCF-7) was 32.5 ± 2.9 µM and the “phosphorylation of XRCC1” value (p-XRCC1) was “suppression of phosphorylation of XRCC1 compared with oxaliplatin”.
